Source: PMC7382147, “An effective UFLC–MS/MS method used to study pharmacokinetics of major constituents of Fukeqianjin formula in rat plasma” (Chinese Medicine, 2020)

Assay: Freeze–thaw stability of QC samples (−20 °C, three times)
Format: physicochemical, rat
Settings: plasma QC, spiked 50 ng/mL, freeze (−20 °C) and thaw three times
Procedure: (§1) Aliquots of 100 μL plasma samples were mixed with 10 μL I.S. samples (1 μg/mL, in MeOH), then added with 500 μL ACN, respectively, and vortexed for 5 min, centrifugated at 10,000 rpm for 10 min, the supernatants were transferred into clean vials and dried in a vacuum centrifugal concentrator at 1200 rpm, 37 °C. After that, 100 μL ACN was added and ultrasonic (frequency 40 kHz, power 250 W) extracted for 5 min to dissolve the dry residue, vortexed for 1 min and centrifugated at 10,000 rpm for 5 min, 1 μL of each final supernatant was injected into UFLC–MS/MS for analysis.
(§2) Six replicates of low, medium and high concentrations of quality control (QC) samples were used to verify the stabilities under different conditions including: place at room temperature for 8 h, freeze (− 20 °C) and thaw for three times, and store at − 20 °C for 20 days.

| Freeze–thaw stability Mean | SMILES |
| --- | --- |
| 105.76% | COc1ccccc1-c1cc(=O)c2c(O)cc(OC)c(OC)c2o1 [Analyte 16, panicolin] |

Same assay, conditions: plasma QC, spiked 60 ng/mL, freeze (−20 °C) and thaw three times

| Freeze–thaw stability Mean | SMILES |
| --- | --- |
| 84.52% | C=C1CC[C@@H]2[C@](C)(CO)[C@H](O)CC[C@@]2(C)[C@@H]1C/C=C1/C(=O)OC[C@H]1O [Analyte 12, andrographolide] |

Same assay, conditions: plasma QC, spiked 250 ng/mL, freeze (−20 °C) and thaw three times

| Freeze–thaw stability Mean | SMILES |
| --- | --- |
| 108.03% | COc1ccccc1-c1cc(=O)c2c(O)cc(OC)c(OC)c2o1 [Analyte 16, panicolin] |

Same assay, conditions: plasma QC, spiked 300 ng/mL, freeze (−20 °C) and thaw three times

| Freeze–thaw stability Mean | SMILES |
| --- | --- |
| 86.83% | C=C1CC[C@@H]2[C@](C)(CO)[C@H](O)CC[C@@]2(C)[C@@H]1C/C=C1/C(=O)OC[C@H]1O [Analyte 12, andrographolide] |

Same assay, conditions: plasma QC, spiked 500 ng/mL, freeze (−20 °C) and thaw three times

| Freeze–thaw stability Mean | SMILES |
| --- | --- |
| 95.34% | COc1ccccc1-c1cc(=O)c2c(O)cc(OC)c(OC)c2o1 [Analyte 16, panicolin] |

Same assay, conditions: plasma QC, spiked 600 ng/mL, freeze (−20 °C) and thaw three times

| Freeze–thaw stability Mean | SMILES |
| --- | --- |
| 93.19% | C=C1CC[C@@H]2[C@](C)(CO)[C@H](O)CC[C@@]2(C)[C@@H]1C/C=C1/C(=O)OC[C@H]1O [Analyte 12, andrographolide] |

Assay: Long-term stability of QC samples (−20 °C for 20 days)
Format: physicochemical, rat
Settings: plasma QC, spiked 50 ng/mL
Procedure: as §1, §2

| Long-term stability Mean | SMILES |
| --- | --- |
| 105.80% | COc1ccccc1-c1cc(=O)c2c(O)cc(OC)c(OC)c2o1 [Analyte 16, panicolin] |

Same assay, conditions: plasma QC, spiked 60 ng/mL

| Long-term stability Mean | SMILES |
| --- | --- |
| 115.89% | C=C1CC[C@@H]2[C@](C)(CO)[C@H](O)CC[C@@]2(C)[C@@H]1C/C=C1/C(=O)OC[C@H]1O [Analyte 12, andrographolide] |

Same assay, conditions: plasma QC, spiked 250 ng/mL

| Long-term stability Mean | SMILES |
| --- | --- |
| 89.82% | COc1ccccc1-c1cc(=O)c2c(O)cc(OC)c(OC)c2o1 [Analyte 16, panicolin] |

Same assay, conditions: plasma QC, spiked 300 ng/mL

| Long-term stability Mean | SMILES |
| --- | --- |
| 94.37% | C=C1CC[C@@H]2[C@](C)(CO)[C@H](O)CC[C@@]2(C)[C@@H]1C/C=C1/C(=O)OC[C@H]1O [Analyte 12, andrographolide] |

Same assay, conditions: plasma QC, spiked 500 ng/mL

| Long-term stability Mean | SMILES |
| --- | --- |
| 95.48% | COc1ccccc1-c1cc(=O)c2c(O)cc(OC)c(OC)c2o1 [Analyte 16, panicolin] |

Same assay, conditions: plasma QC, spiked 600 ng/mL

| Long-term stability Mean | SMILES |
| --- | --- |
| 96.64% | C=C1CC[C@@H]2[C@](C)(CO)[C@H](O)CC[C@@]2(C)[C@@H]1C/C=C1/C(=O)OC[C@H]1O [Analyte 12, andrographolide] |

Assay: Pharmacokinetic study in rat plasma after oral administration of FKQJF extract (UFLC–MS/MS)
Format: in vivo, Sprague-Dawley (SD) rats
Settings: Sprague-Dawley, oral FKQJF extract, single dose 3.2 g/kg, mean ± SD
Procedure: as §1
An 8050 UFLC–MS/MS system equipped with LC-30A binary pump, a SIL-30AC autosampler, a SPD-M30A PDA detector, a CTO-20AC column oven, and a 8050 triple quadrupole mass spectrometer with an electrospray ionization source (ESI) was applied to detect and quantify FKQJF compounds in plasma samples. Data were acquired and processed with the software LabSolution (Ver. 5.6).
A Kinetex XB-C18 HPLC column (100 × 2.1 mm, 2.6 μm) linked with an equivalent guard column was used for chromatographic separation. The aqueous phase contained 0.2% formic acid was used as mobile phase A, and organic phase ACN as mobile phase B. The gradient elution method using in this program was: 3–5 min, 28–31% B; 5–7 min, 31–34% B; 7–9 min, 34–65% B; 9–10 min, 65–95% B; 10–11.5 min, 95% B. The flow rate of mobile phase, column temperature and autosampler temperature was 0.4 mL/min, 30 °C and 4 °C, respectively. The injection volume of each sample was set as 1 μL. The main MS spectrum parameters were set as follows: the flow rate of drying gas (N2) was 10.0 L/min; the atomized gas was 3.0 L/min and the heating gas flow rate was 10.0 L/min. The main temperatures of interface, desolvation and heat block was 300 °C, 250 °C and 400 °C, respectively. And, the interface and detector voltage were 3 kV and 1.8 kV.
Rats were divided into a blank group and a FKQJF administration group (6 rats for each), and fasted for 24 h. Each rat of the administration group was given FKQJF extract suspension at a single dose of 3.2 g FKQJF/kg body weight through oral administration in parallel. Blood samples (0.25 mL) were gathered from the orbital venous plexus of each rat, with FKQJF group gathered at 14 serial timepoints (6 rats for each) as 0.083 h, 0.16 h, 0.33 h, 0.5 h, 0.75 h, 1.0 h, 1.5 h, 2 h, 3 h, 4 h, 6 h, 8 h, 12 h and 24 h after drug administration. The blood samples were centrifugated at 6000g for 10 min to isolate plasma and stored at − 20 °C for further analysis.
Data were analyzed using the Drug and Statistics (DAS) Software version 2.0 (DAS 2.0, Mathematical Pharmacology Professional Committee of China, Shanghai, China). The non-compartmental mode was applied to obtain the following PK parameters: area under the plasma concentration–time curve from time zero to the time of last quantifiable concentration (AUC0→t) and area under the plasma concentration–time curve to time infinity (AUC0→∞), the elimination half-life (t1/2), mean retention time to last sampling time (MRT0→t) and mean retention time to infinity (MRT0→∞). The maximum plasma concentration (Cmax) and the time to maximum concentration (Tmax) were observed directly from the concentration–time (C–T) curves and measured data. All data are presented as mean ± SD.

| AUC(0-inf) | AUC(0-t) | Cmax | half-life | SMILES |
| --- | --- | --- | --- | --- |
| 480 ± 71.9 ng·h/mL | 442 ± 59.5 ng·h/mL | 186 ± 19 ng/mL | 1.79 ± 0.2 h | C=C1CC[C@@H]2[C@](C)(CO)[C@H](O)CC[C@@]2(C)[C@@H]1C/C=C1/C(=O)OC[C@H]1O [Analyte 12, andrographolide] |
| 251 ± 97.6 ng·h/mL | 177 ± 17.1 ng·h/mL | 31.4 ± 6.94 ng/mL | 12.6 ± 12.7 h | COc1ccccc1-c1cc(=O)c2c(O)cc(OC)c(OC)c2o1 [Analyte 16, panicolin] |

Same assay, conditions: Sprague-Dawley, oral FKQJF extract, single dose 3.2 g/kg, mean ± SD, read-out: MRT0→t

| MRT last | SMILES |
| --- | --- |
| 2.45 ± 0.19 h | C=C1CC[C@@H]2[C@](C)(CO)[C@H](O)CC[C@@]2(C)[C@@H]1C/C=C1/C(=O)OC[C@H]1O [Analyte 12, andrographolide] |
| 8.68 ± 1.17 h | COc1ccccc1-c1cc(=O)c2c(O)cc(OC)c(OC)c2o1 [Analyte 16, panicolin] |

Same assay, conditions: Sprague-Dawley, oral FKQJF extract, single dose 3.2 g/kg, mean ± SD, read-out: MRT0→∞

| MRT inf | SMILES |
| --- | --- |
| 3.1 ± 0.33 h | C=C1CC[C@@H]2[C@](C)(CO)[C@H](O)CC[C@@]2(C)[C@@H]1C/C=C1/C(=O)OC[C@H]1O [Analyte 12, andrographolide] |
| 20.1 ± 5.01 h | COc1ccccc1-c1cc(=O)c2c(O)cc(OC)c(OC)c2o1 [Analyte 16, panicolin] |

Same assay, conditions: Sprague-Dawley, oral FKQJF extract, single dose 3.2 g/kg, mean ± SD, read-out: Tmax

| Tmax | SMILES |
| --- | --- |
| 1 ± 0.43 h | C=C1CC[C@@H]2[C@](C)(CO)[C@H](O)CC[C@@]2(C)[C@@H]1C/C=C1/C(=O)OC[C@H]1O [Analyte 12, andrographolide] |
| 2 h | COc1ccccc1-c1cc(=O)c2c(O)cc(OC)c(OC)c2o1 [Analyte 16, panicolin] |

Same assay, conditions: oral FKQJF extract 3.2 g/kg

| shape of the plasma concentration–time curve | SMILES |
| --- | --- |
| double-peaks | C=C1CC[C@@H]2[C@](C)(CO)[C@H](O)CC[C@@]2(C)[C@@H]1C/C=C1/C(=O)OC[C@H]1O [Analyte 12, andrographolide] |
| double-peaks | COc1ccccc1-c1cc(=O)c2c(O)cc(OC)c(OC)c2o1 [Analyte 16, panicolin] |

Same assay, conditions: oral FKQJF extract 3.2 g/kg, post dose

| time of first peak of the concentration–time curve | time of second peak of the concentration–time curve | SMILES |
| --- | --- | --- |
| 0 to 1 h | 1.5 to 3 h | C=C1CC[C@@H]2[C@](C)(CO)[C@H](O)CC[C@@]2(C)[C@@H]1C/C=C1/C(=O)OC[C@H]1O [Analyte 12, andrographolide] |

Assay: Ordinary stability of QC samples (room temperature for 8 h)
Format: physicochemical, rat
Settings: plasma QC, spiked 50 ng/mL, room temperature 8 h
Procedure: as §1, §2

| Ordinary stability Mean | SMILES |
| --- | --- |
| 83.35% | COc1ccccc1-c1cc(=O)c2c(O)cc(OC)c(OC)c2o1 [Analyte 16, panicolin] |

Same assay, conditions: plasma QC, spiked 60 ng/mL, room temperature 8 h

| Ordinary stability Mean | SMILES |
| --- | --- |
| 115.56% | C=C1CC[C@@H]2[C@](C)(CO)[C@H](O)CC[C@@]2(C)[C@@H]1C/C=C1/C(=O)OC[C@H]1O [Analyte 12, andrographolide] |

Same assay, conditions: plasma QC, spiked 250 ng/mL, room temperature 8 h

| Ordinary stability Mean | SMILES |
| --- | --- |
| 92.98% | COc1ccccc1-c1cc(=O)c2c(O)cc(OC)c(OC)c2o1 [Analyte 16, panicolin] |

Same assay, conditions: plasma QC, spiked 300 ng/mL, room temperature 8 h

| Ordinary stability Mean | SMILES |
| --- | --- |
| 107.50% | C=C1CC[C@@H]2[C@](C)(CO)[C@H](O)CC[C@@]2(C)[C@@H]1C/C=C1/C(=O)OC[C@H]1O [Analyte 12, andrographolide] |

Same assay, conditions: plasma QC, spiked 500 ng/mL, room temperature 8 h

| Ordinary stability Mean | SMILES |
| --- | --- |
| 88.55% | COc1ccccc1-c1cc(=O)c2c(O)cc(OC)c(OC)c2o1 [Analyte 16, panicolin] |

Same assay, conditions: plasma QC, spiked 600 ng/mL, room temperature 8 h

| Ordinary stability Mean | SMILES |
| --- | --- |
| 85.93% | C=C1CC[C@@H]2[C@](C)(CO)[C@H](O)CC[C@@]2(C)[C@@H]1C/C=C1/C(=O)OC[C@H]1O [Analyte 12, andrographolide] |
